Measurements as given in US9265189B2, “Method for reducing damage by harmful organisms in corn cultivation” (SUMITOMO CHEMICAL COMPANY, LIMITED, priority 2012, dated 2016).

How the values were obtained:
Format in all cases: in vivo
[1] = test system: Diabrotica virgifera virgifera and Agriotes lineatus; experiment: Field test, corn lodged due to damage by Diabrotica virgifera virgifera and Agriotes lineatus (Example 5); conditions: Example section 5: clothianidin 80 g/ha, in-furrow spray of Dantop 50WG 125 L/ha, corn DKC 5143 seed treated with Maxim XL, MaisTer pre-treatment, 155 days after application; non-treatment section 36
Description: A chemical fertilizer (N:P:K=15:15:15) was applied to the soil surface of a cultivated land at 300 kg/ha, and the cultivated land was then plowed. In order to prevent generation of weeds, 28 days after fertilization, the whole cultivated land was spraying-treated with a mixed agent (using 610 g/kg water dispersible granule, trade name: […], manufactured by Bayer CropScience) of foramsulfuron and an iodosulfuron-methyl-sodium salt, each of which being a herbicide, and a safener, isoxadifen-ethyl, at 0.15 L/ha in terms of an application amount of the preparation. 3 days after application of the preparation, using a pneumatic seeder (disk furrow opener) equipped with a power sprayer, a cultivated land was ditched at intervals of 75 cm to a depth of 5 cm from the soil surface, and the furrow was seeded with corn (variety name: DKC 5143; hybrid variety, manufactured by Monsanto). […] 155 days after application of the clothianidin water dispersible granule, the number of plants of corn lodged due to damage by Diabrotica virgifera virgifera and Agriotes lineatus in the furrows of the example section 5 and the non-treatment section, for which the number of plants of corn germinated was investigated, was investigated, a lodge rate was calculated in accordance with the following equation, and then an average lodge rate for the four investigation sections was determined. […]

Agriotes spp. = experiment: Field test, corn plants damaged by Agriotes spp. after in-furrow spray (Example 2); conditions: Example section 2: clothianidin 50 g/ha, in-furrow spray of Dantop 50WG aqueous suspension 100 L/ha, corn DK 440, 34 days after application; non-treatment section 73.3
Experimental: Using a pneumatic seeder (disk furrow opener, manufactured by Gaspardo) equipped with a power sprayer (trade name: WJR 2525, manufactured by HONDA), a cultivated land was ditched at intervals of 75 cm to a depth of 3 cm from the soil surface, and the furrow was seeded with corn (Zea Mays, trade name: DK 440; hybrid variety, manufactured by Monsanto) at intervals of […]. A seeding density of corn was 100000 seeds/ha. Then, the furrow was spray-treated with an aqueous suspension of a clothianidin water dispersible granule (using a 50% dispersible granule, trade name: Dantop 50WG, manufactured by Philagro) at 100 L/ha so that the application amount of clothianidin was 50 g/ha, and then a soil on the side of the furrow was gathered together to close the furrow. This was defined as an example section 2. For comparison, a non-treatment section, which was seeded with corn without application of a clothianidin water dispersible granule, was provided. […] 34 days after application of the clothianidin water dispersible granule, the number of plants of corn damaged by Agriotes spp. in each of the example section 2 and the non-treatment section was investigated, a damage plant rate was calculated in accordance with the following equation, and then an average damage plants rate of the four investigation sections was determined. […]

[2] = test system: Diabrotica virgifera virgifera and Agriotes lineatus; experiment: Field test, lodge rate, clothianidin in-furrow, seed treated with thiuram and cyprosulfamide (Example 9); conditions: clothianidin 50 g/ha in-furrow spray 125 L/ha, 165 days after application, example in present tense
Description: A chemical fertilizer (N:P:K=15:15:15) is applied to the soil surface of a cultivated land at 300 kg/ha, and the cultivated land is then plowed. 7 days after fertilization, for suppressing generation of weeds, the soil surface of the whole cultivated land is spray-treated with a mixed liquid containing thiencarbazone-methyl and isoxaflutole, each of which being a herbicide, at 150 L/ha so that the application amounts of thiencarbazone-methyl and isoxaflutole are 9.2 g/ha and 23 g/ha. 21 days after fertilization, using a pneumatic seeder (disk furrow opener) equipped with a power sprayer, a cultivated land is ditched at intervals of 75 cm to a depth of 5 cm from the soil surface, and the furrow is seeded with corn (Zea Mays; hybrid variety). The furrow is seeded at intervals of 20 cm using, as a seed of corn, one treated with thiuram and cyprosulfamide. A seeding density of corn is 70000 seeds/ha. […] 165 days after application of the aqueous suspension of clothianidin, the number of plants of corn lodged due to damage by Diabrotica virgifera virgifera and Agriotes lineatus in the furrows of the treatment section and the non-treatment section, for which the number of plants of corn germinated is investigated, is investigated, a lodge rate is calculated in accordance with the following equation, and then an average lodge rate for the four investigation sections is determined.

CN/C(=N\[N+](=O)[O-])NCc1cnc(Cl)s1 [clothianidin]
Lodge rate (%) [1]: 0%
Damage plant rate (%) (Agriotes spp.): 7.7%
Lodge rate compared to non-treatment section [2]: low lodge rate as compared to the non-treatment section
